Measured values published in paper doi:10.1101/2025.07.30.667614, “Steric control of signaling bias in the immunometabolic receptor GPR84” (bioRxiv, 2025).
Where two headings read alike, the source gives them in different places.

What was measured:
wild type GPR84 [1] = target: T1, wild type GPR84 (Homo sapiens, UniProt Q9NQS5); assay: pThr263/pThr264 immunoblot of immunoprecipitated GPR84-eYFP; format: cell-based; conditions: 1 μM
T1 construct: expressed in transfected cells
Protocol: eYFP-linked receptor constructs were immunoprecipitated from 200 μl cell lysates using GFP-Trap® agarose beads (Proteintech) according to manufacturer’s instructions. Immunocomplexes were washed three times in washing buffer, resuspended in 100 μl 2 × SDS-PAGE sample buffer and incubated at 60 °C for 10 min. Following centrifugation at 2500g for 5 min, 20 μl of immunoprecipitated proteins was resolved by SDS-PAGE on 4% to 12% BisTris gels. After separation, the proteins were transferred electrophoretically onto nitrocellulose membrane, which was then blocked using 5% bovine serum albumin (BSA) in Tris-buffered saline (TBS, 50 mM Tris-Cl, 150 mM NaCl, pH 7.6) for 1 h at room temperature on an orbital shaker. The membrane was then incubated with appropriate primary antibody in 5% BSA in TBS supplemented with 0.1% Tween (TBS-T) overnight at 4 °C. Anti-pThr^263/pThr^264 antiserum was diluted 1:2000 and anti-GFP was diluted 1:10,000. Subsequently, the membrane was washed (3 × 10 min with TBS-T) and incubated for 2 h with anti-rabbit secondary antibody diluted 1:10,000 in 5% BSA in TBS-T. After washing (3 × 10 min with TBS-T), proteins were detected using an Odyssey imaging system (Licor) according to the manufacturer’s instructions.

GPR84 L336A = target: T2, GPR84 L336A (Homo sapiens, UniProt Q9NQS5, L336A); assay: BRET β-arrestin-1 recruitment assay, HEK293T cells; format: cell-based; conditions: for EC50: L336A, read-out: β-arrestin-1 pEC50 ± SEM (converted)
T2 construct: FLAG (N); eYFP (C); expressed in transfected cells; host or cells: HEK293T, transient
Protocol: (§1) As a control, cells were transfected with 100:1 ratio of empty plasmid and the appropriate arrestin isoform fused to nano-luciferase. After 24 h, cells were seeded at 50,000 cells per well in poly-D-lysine-coated white 96-well plates and incubated at 37°C overnight. After 24 h, cells were washed twice with Hank’s balanced salt solution (HBSS), pH 7.4, and 10 μl/well of the nano-luciferase substrate coelenterazine-h (Nanolight Technologies) was added to a final concentration of 5 μM. Cells were incubated in the dark for 10 min at 37°C, after which 10 μl/well of the agonist compound was added, and the cells were incubated for another 5 minutes. 15 min after coelenterazine-h addition, reading of emission signals were performed on a PHERAstar FS plate reader (BMG Labtech) at 475 and 535 nm, representing nano-luciferase and eYFP emission signals, respectively. The net bioluminescence resonance energy transfer (BRET) ratio (mBRET) was calculated as follows: mBRET=(BRET^sample−BRET^control)*1000whereBRET=Emission^535nm/Emission^475nm

GPR84 F187A = target: T3, GPR84 F187A (Homo sapiens, UniProt Q9NQS5, F187A); assay: BRET β-arrestin-1 recruitment assay, HEK293T cells; format: cell-based; conditions: for EC50: F187A, read-out: β-arrestin-1 pEC50 ± SEM (converted)
T3 construct: FLAG (N); eYFP (C); expressed in transfected cells; host or cells: HEK293T, transient
Protocol: as §1

GPR84 S331A = target: T4, GPR84 S331A (Homo sapiens, UniProt Q9NQS5, S331A); assay: BRET β-arrestin-1 recruitment assay, HEK293T cells; format: cell-based; conditions: for Emax: HEK-293T
T4 construct: FLAG (N); eYFP (C); expressed in transfected cells; host or cells: HEK293T, transient
Protocol: as §1

GPR84-WT = target: T5, GPR84-WT (Homo sapiens, UniProt Q9NQS5); assay: BRET β-arrestin-1 recruitment assay, HEK293T cells; format: cell-based; conditions: for Emax: HEK-293T
T5 construct: FLAG (N); eYFP (C); expressed in transfected cells; host or cells: HEK293T, transient
Protocol: as §1

wild type GPR84 [2] = target: T1, wild type GPR84; assay: pThr263/pThr264 GPR84 phosphorylation assay (magnetic bead capture); format: cell-based; conditions: for EC50: 5 min stimulation, read-out: pEC50 ± SEM, phosphorylation of Thr263 and Thr264 (converted)
Protocol: Flp-In™ TREx™ 293 cells engineered to express FLAG-GPR84-eYFP were seeded onto poly-D-lysine-coated clear 96-well plates at a density of 5 x 10^4 cells/well and grown overnight before treatment with 100 ng/ml doxycycline to induce receptor expression. After 24 h, cells were serum starved for 2 hours then stimulated with the indicated agonists, prepared in serum free media, for 5 min at 37 °C. After washing with ice-cold PBS, cells were lysed in 100 μl/well lysis buffer (150 mM NaCl, 50 mM Tris-HCl, 5 mM EDTA, 1% IGEPAL (Nonidet P-40), 0.5% deoxycholic acid, and 0.1% SDS; pH 7.4) supplemented with protease and phosphatase inhibitor cocktail on an orbital shaker for 1 hour at 4 °C. Lysates were cleared by centrifugation at 3700 × g for 20 min at 4 °C and 80 μl of supernatants transferred into 96-U-bottom-well assay plates (Greiner Bio-One). GFP-Trap® magnetic agarose beads (1 μl/well) were washed then diluted in lysis buffer to give a total volume of 20 μl of bead slurry per well before adding to supernatant. Assay plates were incubated on a microplate shaker at 700 rpm for 2 h at 4 °C then washed three times with 100 μl of PBS with 0.1% Tween-20 (PBS-T) under magnetic force using a handheld magnetic separation block (Milliplex, Millipore). After washing, anti-pThr263/pThr264 antiserum was diluted 1:1000 in PBS-T then 60 μl added to assay plate. The plates were then incubated overnight at 4 °C on a microplate shaker. After another wash cycle (3 x with PBS-T), anti-rabbit horseradish […] (HRP)-linked secondary antibody was added to PBS-T to a final dilution of 1:10,000 and incubated on a microplate shaker for 2 h at room temperature. After a further wash cycle, 100 μl of TMB substrate solution was added to each well and the plates were incubated for 15 min. The reaction was stopped by the addition of 100 μl of 0.3 M sulphuric acid. The assay plates were then placed on a magnetic separation block and 100 μl of the supernatant was transferred to a transparent 96-well F-bottom plate. The OD at 450 nm was then read on a PHERAstar FS plate reader (BMG Labtech).

[3] = pKa measurement (Sirius T3 UV-metric and pH-metric titration); format: physicochemical; conditions: 25 °C, ionic strength 0.15 M; read-out: measured pKa of the hydroxyl group
Protocol: OX04529 pKa was determined using a UV-metric titration method on a Sirius T3 with a combination Ag/AgCl pH electrode. 5 μL of OX04529 stock solution was added to 25 μL of a neutral linear buffer. The sample was then pre-acidified to pH < 2.0 using 0.5 M HCl and titrated three times until pH > 12.0 using 0.5 M KOH. Titrations were carried out at a constant ionic strength of 0.15 M (adjusted with KCl) and maintained at 25.0 ±0.5 °C. UV absorbance data across varying wavelengths and pH values were recorded. Molar absorption profiles and species distribution plots were generated in the Sirius T3 software, from which apparent pKa value was calculated.
OX04529 pKa was measured using pH-metric titration on the Sirius T3 system. The solution was pre-acidified to pH < 3.0 with 0.5 M HCl and titrated three times until pH > 11.0 using 0.5 M KOH.

[4] = Extended Data Table 4, read-out: β-arrestin-1 pEC50 ± SEM (converted)
[5] = β-arrestin-1 recruitment, Extended Data Table 6

T3 sequence (Q9NQS5 whole entry F187A): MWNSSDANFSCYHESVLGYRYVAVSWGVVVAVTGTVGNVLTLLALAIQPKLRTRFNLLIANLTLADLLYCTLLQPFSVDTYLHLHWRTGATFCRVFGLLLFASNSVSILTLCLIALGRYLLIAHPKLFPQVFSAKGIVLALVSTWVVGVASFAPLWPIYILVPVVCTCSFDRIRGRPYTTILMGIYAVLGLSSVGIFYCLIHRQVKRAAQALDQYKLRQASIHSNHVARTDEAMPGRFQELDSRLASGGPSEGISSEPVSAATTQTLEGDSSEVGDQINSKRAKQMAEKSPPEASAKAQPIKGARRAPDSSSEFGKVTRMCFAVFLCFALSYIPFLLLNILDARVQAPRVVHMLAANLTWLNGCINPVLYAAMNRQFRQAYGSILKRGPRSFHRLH
T1 sequence (Q9NQS5 whole entry): as the sequence (Q9NQS5 whole entry F187A) above, with A187F counted along it
T5 sequence (Q9NQS5 whole entry): as the sequence (Q9NQS5 whole entry F187A) above, with A187F counted along it
T2 sequence (Q9NQS5 whole entry L336A): as the sequence (Q9NQS5 whole entry F187A) above, with A187F, L336A counted along it
T4 sequence (Q9NQS5 whole entry S331A): as the sequence (Q9NQS5 whole entry F187A) above, with A187F, S331A counted along it

EC50 (GPR84-WT; β-arrestin-1 recruitment, Extended Data Table 6, read-out: pEC50 ± SEM (converted)) [nM]	SMILES	phosphorylation of Thr263 and Thr264 (immunoblot) (wild type GPR84 [1])	EC50 (GPR84 L336A) [nM]	EC50 (GPR84 F187A) [nM]	EC50 (GPR84 S331A) [nM]	Emax (GPR84 S331A) [%]	EC50 (GPR84-WT; [4]) [nM]	Emax (GPR84-WT; [5]) [%]	EC50 (wild type GPR84 [2]) [nM]	pKa [3]	efficacy in promoting interaction with β-arrestin-1 (GPR84 L336A; Leu336Ala GPR84, HEK293T)	efficacy in promoting interaction with β-arrestin-1 (GPR84 F187A; Phe187Ala GPR84, HEK293T)	pEC50 ± SEM (GPR84-WT; [5])	potency and efficacy in promoting phosphorylation of Thr263/Thr264 (wild type GPR84 [2]; magnetic bead capture assay)
31.6	Cc1cc(CCCc2cc(O)c[n+]([O-])c2)ccc1Cl [OX04954]	promoted phosphorylation	2.14	5.75	30.9	66 ± 7	39.8	71 ± 4	7.59					
	[O-][n+]1cc(O)cc(CCc2ccc(Cl)c(C(F)(F)F)c2)c1 [OX04529]	ineffective	1.86	3.8	28.8	24 ± 6	49	18 ± 4	12.3	6.26	full agonist	substantial efficacy	7.10 ± 10.11	weak efficacy
